Experimental data: patent US20080072337A1, “Braf Expression in Zebrafish and Uses Thereof” (Children's Medical Center Corporation, priority 2004, published 2008)

System: zebrafish
Assay: Examination of DMBA treated zebrafish for melanoma
Type: in vivo
Conditions: over 10,000 DMBA treated zebrafish examined; unpublished data of the applicants

With `Cc1c2ccccc2c(C)c2c1ccc1ccccc12` [DMBA] the “melanoma identified in treated zebrafish” value was “failed to identify a single melanoma”.
